One compound from PMC7764606 (Cancers, 2020) can be followed below.

Experiment [1] has as its target T1, recombinant AKR1C3 (Homo sapiens, UniProt P42330).
T1 construct: made in house; host or cells: Escherichia coli
T1 sequence (P42330 1-323): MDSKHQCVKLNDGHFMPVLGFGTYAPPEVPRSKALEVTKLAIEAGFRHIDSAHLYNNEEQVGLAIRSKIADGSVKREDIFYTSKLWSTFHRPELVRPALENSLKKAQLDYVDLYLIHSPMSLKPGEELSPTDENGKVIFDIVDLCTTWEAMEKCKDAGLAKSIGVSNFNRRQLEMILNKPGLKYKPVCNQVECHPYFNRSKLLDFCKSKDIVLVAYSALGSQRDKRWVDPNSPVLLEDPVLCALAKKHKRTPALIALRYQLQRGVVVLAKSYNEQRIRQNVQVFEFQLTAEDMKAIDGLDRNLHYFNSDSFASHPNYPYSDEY
Nature of the experiment: Reduction of Dau by recombinant AKR1C3 (UHPLC detection of Dau-ol). It is filed as biochemical. The following applies: for reduction of AKR1C3 activity (Dau reduction): Dau 500 µM, relative to DMSO; for Ki: read-out: Ki^app (Morrison equation for tight-binding inhibitors). As to the method:
Human recombinant CREs (CBR1, AKR1A1, 1B1, 1B10, 7A2, and 1C3) were produced by an Escherichia coli expression system as per methods described previously. For the inhibitory assay, each recombinant enzyme, CBR1 (1 µg), AKR1A1 (1 µg), AKR1B1 (5 µg), AKR1B10 (5 µg), AKR7A2 (3 µg), or AKR1C3 (1.5 µg) was incubated with BTK inhibitors at different concentrations (10 and 50 µM) and the substrate Dau (500 µM). For analysis using the Lineweaver-Burk plot, 1.5 µg of recombinant AKR1C3 was incubated with DMSO or BTK inhibitors (1, 5, and 10 µM) and Dau (200, 400, 600, 800, 1000, and 2000 µM). […] The incubations and further metabolite detection were further performed by using ultra-high-performance liquid chromatography (UHPLC) as per methods described previously.

Experiment [2] relates to HCT116-C3 cells. Put plainly: MTT cell viability, HCT116-C3 cells (incl. Chou-Talalay analysis). It counts as cell-based, human. As to the method:
HCT116 cells were seeded (1.25 × 10^5 cells/well) in 24-well plates and cultured for 24 h. For the transient expression of the recombinant human AKR1C3, the cells were transfected with a pCI_AKR1C3 or empty pCI plasmid as control (previously described in a study by Hofman et al.) according to the manufacturer’s instructions (jetPRIME® Transfection Reagent; Polyplus Transfection®, Illkirch, France). For each 24-well plate, a mixture of 0.75 µL of the jetPRIME® Transfection Reagent and 0.25 µg of plasmid was incubated for 10 min at room temperature. Then, polyplexes were added to the HCT116 cells with 0.5 mL of fresh DMEM supplemented with 10% FBS and incubated for 24 h (37 °C, 5% CO2). The expression of recombinant AKR1C3 was verified by western blotting as per methods described previously.
The synergistic effect of BTK inhibitors on Dau cytotoxicity was evaluated in transfected HCT116 and A549 cells by IC50 determination. Twenty-four hours prior to the experiment, transfected HCT116 cells (8 × 10^3 cells/well) or A549 cells (5 × 10^3 cells/well) were seeded in 96-well plates. The cell culture medium was replaced with fresh medium containing increasing amounts of Dau (final concentrations: 0.01, 0.05, 0.1, 0.25, 0.5, 0.75, 1, and 10 µM) with or without BTK inhibitors (final concentrations: 1, 5, and 10 µM). After 72 h of incubation under standard conditions (37 °C, 5% CO2), cell viability was assessed by MTT (Sigma-Aldrich, Prague, Czech Republic) assay. For this, 50 µL of the MTT solution (3 mg/mL) was added to each well and incubated for 30 min. The supernatant was collected, and the cell monolayers were dissolved in 100 µL of DMSO. The absorbance was measured at 570 and 690 nm by a microplate reader Infinite M200 (Tecan, Salzburg, Austria), and the background values at 690 nm were subtracted from the absorbance obtained at 570 nm. The half-maximal inhibitory concentrations (IC50) were calculated using GraphPad Prism 8.1.2. The drug combination pharmacodynamics were determined by the Chou-Talalay method using the CompuSyn ver. 3.0.1 software (ComboSyn Inc., Paramus, NJ, USA).

Setting [3] is: HCT116-C3, BTK-inhibitor 5 µM + Dau 0.25 µM.
[4] abbreviates: HCT116-C3, BTK-inhibitor 10 µM + Dau 0.25 µM.

Read-outs that look alike come from different tables or passages of the source.

The IC50 is the point on the concentration scale where inhibition reaches its midpoint. As to `CC#CC(=O)N1CCC[C@H]1c1nc(-c2ccc(C(=O)Nc3ccccn3)cc2)c2c(N)nccn12` [Acalabrutinib, acalabrutinib], the “reduction of AKR1C3 activity (Dau reduction)” value in experiment [1] (10 µM BTK inhibitor) is recorded as 89.55% ± 4%; in experiment [1] (50 µM BTK inhibitor), 96.28% ± 1.58%. Besides, the Ki in experiment [1] (AKR1C3 0.005 mg/mL (0.135 μM)) amounted to 451 nM; in experiment [1] (AKR1C3 0.015 mg/mL (0.405 μM)), 521 nM; in experiment [1] (AKR1C3 0.030 mg/mL (0.811 μM)) it was 566 nM. For the same compound, the “mode of inhibition (Lineweaver-Burk plot)” value in experiment [1] (recombinant AKR1C3 with increasing Dau) is “non-competitive/mixed”. Also, the “Dose reduction index for Dau” value in experiment [2] (setting [3]) came out at 1.38 ± 0.37; in experiment [2] (setting [4]), 1.77 ± 0.75. Moreover, the “Fraction affected (Fa %)” value in experiment [2] (setting [3]) is 34.59 ± 5.75%; in experiment [2] (HCT116-C3, BTK-inhibitor 5 µM + Dau 0.50 µM) it was 68.43 ± 1.41%; in experiment [2] (HCT116-C3, BTK-inhibitor 5 µM + Dau 0.75 µM), 79.88 ± 0.40%; in experiment [2] (HCT116-C3, BTK-inhibitor 5 µM + Dau 1.00 µM), 86.61 ± 1.29%; in experiment [2] (setting [4]), 40.91 ± 11.4%; in experiment [2] (HCT116-C3, BTK-inhibitor 10 µM + Dau 0.50 µM) it was 77.47 ± 0.69%. Further, the “Fraction affected (Fa %)” value in experiment [2] (HCT116-C3, BTK-inhibitor 10 µM + Dau 0.75 µM) was found to be 87.59 ± 1.02%; in experiment [2] (HCT116-C3, BTK-inhibitor 10 µM + Dau 1.00 µM), 91.62 ± 0.29%. Moreover, in experiment [2] (Homo sapiens, HCT116-C3, 72 h MTT, read-out: IC50 of BTK inhibitor alone (cell viability)), the IC50 is 32200 nM. The “relative resistance (RR)” value in experiment [2] (IC50 in HCT116-C3 divided by IC50 in HCT116-EV) is 0.97.
